According to patent US6828348B2, “L-ascorbic acid-2-o-maleic acid-a-tocopherol diester 1-propanol adduct and process for producing the same” (Senju Pharmaceutical Co., Ltd., priority 2002, dated 2004):
Read-outs that look alike come from different tables or passages of the source.

How the values were obtained:
[1] = 4 weeks, liquid chromatography
Protocol: The experimental conditions are as follows:
Detector: Ultraviolet absorptiometer (wave length: 220 nm)
Column: A stainless steel tube of 6 mm ID and 15 cm length being packed with octadecylated silica gel of […] in particle size designed for use in liquid chromatograph.
Mobile phase: As prepared by dissolving 0.4 g of crystalline sodium dihydrogenphosphate and 0.3 g of sodium chloride in 50 ml of water, and adding 500 ml of methanol and 450 ml of acetonitrile, followed by addition of phosphoric acid to adjust to pH 4.0.
Flow rate: As regulated so that the retention time may be about 12 min.

[2] = target: T1, elastase originated from human white blood cells (Homo sapiens, UniProt P08246); test: Elastase inhibitory activity (fluorogenic synthetic substrate); type: biochemical
T1 construct: elastase originated from human white blood cells; from tissue; host or cells: human white blood cells
T1 sequence (P08246 30-247 limits assumed): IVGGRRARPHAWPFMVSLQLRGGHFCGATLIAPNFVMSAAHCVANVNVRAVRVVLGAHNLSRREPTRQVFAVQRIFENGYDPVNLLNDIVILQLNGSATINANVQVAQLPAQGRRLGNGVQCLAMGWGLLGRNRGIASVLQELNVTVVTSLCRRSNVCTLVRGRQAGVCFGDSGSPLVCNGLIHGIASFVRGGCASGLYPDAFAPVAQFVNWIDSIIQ
Text: are the reversibly extensible, highly elastic protein that is principal constituent of elastic fibers to maintain the extensibility and elasticity of the skin. […] are degraded and synthesized in the sustainable manner, thus acting to maintain the extensibility and elasticity of the skin, but may lose their extensibility and elasticity, when the rate of their degradation by elastase owing to aging, etc. exceeds the rate of their synthesis. Accordingly, inhibition of the elastase enables the skin to maintain its extensibility and elasticity. Such being the case, the Compound of the present invention is tested for its elastase inhibitory activity in the following manner: […] Testing method […]

| Compound | Residual ratio ([1]; storage at 4° C.) | Residual ratio ([1]; storage at 40° C.) | Residual ratio ([1]; storage at 50° C.) | Elastase inhibitory activity (in words) ([2]; 0.01 to 1 mM, Table 2) | Ratio of elastase inhibition ([2]; test specimen 0.01 mM) | Ratio of elastase inhibition ([2]; test specimen 0.1 mM) | Ratio of elastase inhibition ([2]; test specimen 1 mM) |
| --- | --- | --- | --- | --- | --- | --- | --- |
| CCO.Cc1c(C)c2c(c(C)c1OC(=O)/C=C\C(=O)OC1=C(O)[C@@H]([C@@H](O)CO)OC1=O)CCC(C)(CCCC(C)CCCC(C)CCCC(C)C)O2 (stereo partly drawn) [Reference Example 1, L-Ascorbic acid-2-O-maleic acid-α-tocopherol diester.ethanol adduct] | 99.7% | 90.9% | 81.7% |  |  |  |  |
| L-Ascorbic acid-2-O-maleic acid-α-tocopherol diester.1-propanol adduct [Example 1] |  |  |  | remarkable elastase inhibitory activity | 4 | 19 | 71 |
